Laboratory results reported in patent publication US20250263370A1 (Tay Therapeutics Limited, priority 2022, published 2025).
Like-named read-outs stand apart in the source and are kept apart here.

Tests used:
BRD4 BD1 = BRD4 BD1 (Homo sapiens (Human), UniProt O60885); assay: NanoBRET bromodomain assay, NanoLuc-BRD4-BD1 fusion in HEK293 cells; assay type: cell-based; settings: top concentration 10 μM
Protocol: (§1) HEK293 cells were transfected using NanoLuc-BRD4-BD1 or NanoLuc-BRD4-BD2 fusion vectors and incubated at 37° C. in an atmosphere of 5% CO2 for 20-24 hours. The transfected cells were then dispensed into 96-well plates using 90 μl cell suspension per well containing 2×10^5 cells/mL in Opti-MEM and 1× final concentration of tracer. 90 μL per well of cell suspension without tracer was also dispensed into at least 3 wells as “No tracer control samples” for background correction. Serially diluted test compounds were prepared at 1000× concentration in DMSO and further diluted to 10× concentration in Opti-MEM. […] Plates were then incubated at 37° C. +5% 002 incubator for 2 hours. […] Donor emission (450 nm) and acceptor emission (610 nm) were measured using PHERAstar (BMG LabTech). For data analysis, the raw BRET ratio was generated and converted to milliBRET units with background correction using the formula: [(Acceptorsample/Donorsample−(Acceptorno tracer control/Donorno tracer control)]×1000. The mBU data was plotted as a function of compound concentration and IC50s for BRET assay were determined by nonlinear regression analysis of concentration response curves using the Collaborative Drug Discovery Vault software. The fold-selectivity was calculated by dividing the IC50 for BRD4 BD1 by the IC50 for BRD4 BD2.

[1] = Plasma stability assay, rat plasma; assay type: in vitro ADME; settings: Method 2 (10 μM)
Protocol: From stock solution of compound in 10 mM DMSO, a working solution of 1 mM is prepared by diluting the compound in DMSO. To 398 μL of plasma pre-warmed at 37° C. for 15 minutes), 2 μL of working solution of compound is added, resulting in a final concentration of 5 μM (0.5% DMSO) for the compound. The sample is then incubated at 37° C. Aliquot is withdrawn at specified time-points (0, 15, 30, 60 and 120 mins). The reaction is stopped by addition of 450 μL cold acetonitrile containing internal standard (IS). […] Aliquots of the supernatant is analysed using LC-MS/MS. The percent remaining of the compound at each time point is calculated with respect to the control sample (0 min time-point).
A working solution of compound (500 μM) is prepared in DMSO (100%). To 735 μL of plasma, 15 μL of working solution of compound is added—resulting in a final concentration of 10 μM (2% DMSO) for the compound. The sample is then incubated at 37° C. Aliquot is withdrawn at time-points—0, 15, 30, 60, 90 and 120 mins. The reaction is stopped by using chilled acetonitrile containing internal standard (IS). The samples are centrifuged and the supernatants analyzed using LC-MS/MS. The percent remaining of the compound at each time point is calculated with respect to the control sample (0 min time-point).

[2] = Intrinsic clearance in liver microsomes, rat; assay type: in vitro ADME; settings: rat, liver microsomes, pH 7.4, rat liver microsomes, read-out: Half-Life (T1/2) (min), Rat
Protocol: From stock solution of compound on 10 mM DMSO, a working solution of 0.1 mM is prepared by diluting the compound in DMSO. 6.25 μL of a 20 mg/mL solution of microsomes in PBS pH 7.4 buffer is added to 216.25 μL PBS pH 7.4 buffer (final microsome concentration—0.5 mg/mL). 25 μL of 10 mM solution of NADPH in PBS pH 7.4 buffer is added to the incubations (final NADPH concentration—1 mM). The mixture is pre-warmed to 37° C. for 10 minutes. 2.5 μL of test compound working solution is added (final compound concentration—1 μM with 1% DMSO). Aliquots of 30 μL are taken from the reaction solution at 0.5, 5, 15, 30 and 60 minutes. The reaction was stopped by the addition of 5 volumes of cold acetonitrile with IS (100 nM alprazolam, 200 nM caffeine and 100 nM tolbutamide). Samples were centrifuged at 3, 220 g for 40 minutes. Aliquots of 100 μL of the supernatant are mixed with 100 μL of ultra-pure H2O and used for LC-MS/MS analysis. The percent compound remaining at each time point is calculated with respect to that of the 0.5 min sample. The data are analysed to calculate half-life. Control experiments are run without NADPH and blank samples are prepared using DMSO without the test compound.
A 50 mM stock solution (in DMSO) is prepared for the compound. From the stock solution, a working solution of 0.5 mM is prepared by diluting the compound in DMSO. This concentration of working solution is prepared considering a final concentration of 1 uM with 0.1% DMSO. The compound (1 μL of working solution) is spiked in PBS with pH 7.4 ([…]) at a concentration of 1 μM. Subsequently, 110 μL of 10 mM NADPH is added (as a co-factor). The sample is incubated at 37° C. for 15 min. Following this, pre-warmed liver microsomes (27.5 μL; final protein conc. 0.5 mg/mL) are added. The samples are then incubated at 37° C. Aliquots of samples are withdrawn at 0, 5, 15, 30, 45 and 60 min. The reaction is stopped by using chilled acetonitrile containing internal standard. The samples are centrifuged, and the supernatants analysed by LC-MS/MS. The percent compound remaining at each time point is calculated with respect to that of the 0 min sample. The data are then analysed to calculate half-life and intrinsic clearance (CLint). Control experiments are run without NADPH and blank samples are prepared using DMSO without the test compound.

[3] = Sprague-Dawley rat pharmacokinetics, IV and PO cassette dosing; assay type: in vivo; settings: for IV T1/2 / PO F: Method 1; for PO F: PO 5 mg/kg
Protocol: Compounds were formulated in 5% DMSO, 40% PEG-400, 55% Milli-Q water at a concentration of 0.2 mg/mL for IV and at 0.5 mg/mL for PO. Two male Sprague-Dawley rats per arm were dosed with up to 5 compounds in cassette mode, which each compound being dosed at 1 mg/kg IV and 5 mg/kg PO. Blood was sampled at various timepoints and plasma isolated. 50 μL of plasma with 5 μL of blank Sprague-Dawley rat plasma were added to 200 μL of acetonitrile containing IS mixture. The samples were vortexed for 30 s. After centrifugation at 4 degrees Celsius, 3900 rpm for 15 min, the supernatant was diluted 3 times with water. 20 μL of diluted supernatant was injected into the LC/MS/MS system for quantitative analysis and concentration of analyte determined by comparison with matrix matched standard curve. WinNonlin (Phoenix™, version 8.3) or other similar software may be used for pharmacokinetic calculations.

BRD4 BD2 = BRD4 BD2 (Homo sapiens (Human), UniProt O60885); assay: NanoBRET bromodomain assay, NanoLuc-BRD4-BD2 fusion in HEK293 cells; settings: for IC50: BRD4 BD2 (IC50), NanoBRET, HEK293 cells, top concentration 10 μM; for Fold selectivity: IC50 for BRD4 BD1 divided by IC50 for BRD4 BD2, qualitative if an IC50 is at the upper limit;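 as to all read-outs here: tracer displacement BRET read in transfected cells after 2 h compound exposure at 37 °C, signal in milliBRET units corrected against no-tracer background wells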
Protocol: as §1

SMILES | IC50 (BRD4 BD1) [µM] | Plasma Stability (% remaining at 120 minutes), Rat [1] [%] | half-life at 1 μM ([2]; Method 1) [min] | IV T1/2 ([3]; IV 1 mg/kg) [min] | PO F [3] [%] | IC50 (BRD4 BD2) [µM] | Fold selectivity (BRD4 BD2) | half-life at 1 μM ([2]; Method 2) [min] | half-life ([3]; male, Sprague-Dawley, rat, plasma, iv, 1 mg/kg, IV 1 mg/kg, Method 1, read-out: IV T1/2 (converted)) [min]
CNC(=O)c1[nH]c(C(=O)NC2COC2)cc1OC(C)c1ccc(Cl)cc1F (single isomer, unassigned) [Example 39, 3-(1-(4-chloro-2-fluorophenyl)ethoxy)-N^2-methyl-N^5-(oxetan-3-yl)-1H-pyrrole-2,5-dicarboxamide] | ≥ 10 | 93 | > 60 |  | 11 | 0.05 to 0.2 | XX (Fold >50 and ≤200) |  | 30
CNC(=O)c1[nH]c(-c2ncc(C)[nH]2)cc1O[C@@H](C)c1ccccc1F [Example 68, (S)-3-(1-(2-fluorophenyl)ethoxy)-N-methyl-5-(5-methyl-1H-imidazol-2-yl)-1H-pyrrole-2-carboxamide] | ≥ 10 | 75 |  |  |  | < 0.05 | XXX (Fold >200) | 23 | 
CNC(=O)c1[nH]c(-c2ncc(C)[nH]2)cc1O[C@@H](C)c1ccc(Cl)cc1 [Example 69, (S)-3-(1-(4-chlorophenyl)ethoxy)-N-methyl-5-(5-methyl-1H-imidazol-2-yl)-1H-pyrrole-2-carboxamide] | ≥ 10 | 83 |  |  |  | < 0.05 | XXX (Fold >200) | 21 | 

Now from value to molecule, other results behind:

IC50 (BRD4 BD1) [µM] | Plasma Stability (% remaining at 120 minutes), Rat [1] [%] | half-life at 1 μM ([2]; Method 1) [min] | IV T1/2 ([3]; IV 1 mg/kg) [min] | PO F [3] [%] | IC50 (BRD4 BD2) [µM] | Fold selectivity (BRD4 BD2) | half-life at 1 μM ([2]; Method 2) [min] | SMILES | half-life ([3]; male, Sprague-Dawley, rat, plasma, iv, 1 mg/kg, IV 1 mg/kg, Method 1, read-out: IV T1/2 (converted)) [min]
≥ 10 | 47 | 47 | 24 | 47 | < 0.05 | XXX (Fold >200) |  | CNC(=O)c1[nH]c(C(=O)NC2CCC2)cc1OC(C)c1ccc(Cl)cc1 (single isomer, unassigned) [Example 27, 3-(1-(4-chlorophenyl)ethoxy)-N^5-cyclobutyl-N^2-methyl-1H-pyrrole-2,5-dicarboxamide] | 
 | 81 | > 60 | 36 | 15 |  | XX (Fold >50 and ≤200) |  | CNC(=O)c1[nH]c(C(=O)NC2COC2)cc1OC(C)c1ccc(Cl)cc1 (single isomer, unassigned) [Example 31, 3-(1-(4-chlorophenyl)ethoxy)-N^2-methyl-N^5-(oxetan-3-yl)-1H-pyrrole-2,5-dicarboxamide] | 
≥ 10 | 67 | 46 | 30 | 65 | < 0.05 | XXX (Fold >200) |  | CNC(=O)c1[nH]c(C(=O)NC2CCC2)cc1OC(C)c1ccc(Cl)cc1F (single isomer, unassigned) [Example 35, 3-(1-(4-chloro-2-fluorophenyl)ethoxy)-N^5-cyclobutyl-N^2-methyl-1H-pyrrole-2,5-dicarboxamide] | 
